Test system: Clone 12 cells (HGPRT-deficient HT1080 fibrosarcoma cells)
Assay: Chemical synthetic lethality screen: retention of HGPRT-tpzGFP survival plasmid (tpzGFP/sphGFP fluorescence ratio) in microplates
Assay type: cell-based, human
Conditions: for detection of chemical synthetic lethality (survival plasmid retention) in blind large-scale test: Clone 12 in 1200 wells, medium lacking selection, chemicals added at random together with guanine (FIG. 9)
Method: For pIS, selection in G418 (Calbiochem) was carried out at 400 microg/ml, while maintenance was at 50 microg/ml. For the HGPRT-tpzGFP survival plasmid, selection in hygromycin B (Sigma) was at 150 microg/ml while maintenance was at 50 microg/ml. […] GATA medium was DMEM with 10% dialyzed FCS, plus 3.5 microM guanine-HCI, 0.4 microM aminopterin, 16 microM thymidine and 35 microM adenine.
For fluorescent scanning, cells were trypsinized and distributed at 30,000 cells/well into 96 well microplates (TPP). Growth medium was changed twice a week and plates were grown for up to 75 days. […] Plates were prepared for scanning by replacement of medium in wells with Hank's balanced salt solution without phenol red. […] Plates were scanned with an FL600 microplate fluorescence reader using the KC4 software (Biotek Instruments). Excitation for sphGFP was at 380 nin with a bandpass of 20 nm, while emission was measured at 508 nm with a bandpass of 40 nm.
Excitation of tpzGFP was at 495 nm with a bandpass of 20 mn, while emission was measured at 535 nm with a bandpass of 40 nm. To avoid possible artifacts, all wells within a given experiment were assayed for the fluorescence of the two GFP mutants using fixed sensitivities. Integrated sphGFP was used as an internal control for the number of cells. This was achieved by dividing the relative fluorescence resulting from the episomal tpzGFP vector by the relative fluorescence for sphGFP for each well. This ratio was then divided by the average fluorescence ratio for cells maintained under hygromycin B or HAT selection, resulting in a value representing percent remaining fluorescence for each well as compared to wells maintained under continuous selection. The data points are an average for all wells and the calculated standard deviation. Cells were returned to growth medium immediately following scanning.
Its loss or retention can be determined by measuring its normalized fluorescence in a microplate reader. It was then necessary to test whether these features would enable the tracing of a synthetic lethality condition. […] Under these conditions, normal HGPRT-positive cells can use supplied guanine to produce GMP via the salvage pathway, and survive, while HGPRT-deficient cells die.

Compound	retention of the survival plasmid (Clone 12 cells, 96 well plates, serial dilutions of drug and of guanine, three weeks (FIGS. 7, 8))	detection of chemical synthetic lethality (survival plasmid retention) in blind large-scale test	retention of the survival plasmid over time (Clone 12 cells, GATA medium + 12.5 microgram/ml MPA, entire time period (FIG. 6))	retention of the survival plasmid (tpzGFP to sphGFP fluorescence ratio), dose response (Clone 12 cells, GATA medium + MPA at successively higher concentrations, read after two weeks (FIG. 5))
NC(=O)c1ncn([C@@H]2O[C@H](CO)[C@@H](O)[C@H]2O)c1O [mizoribine]	caused retention of the survival plasmid	clearly detected	–	–
COc1c(C)c2c(c(O)c1C/C=C(\C)CCC(=O)O)C(=O)OC2 [MPA, mycophenolic acid]	–	clearly detected	retention of the survival plasmid for the entire time period	caused increasing retention of the survival plasmid
N[C@@H](CN(O)N=O)C(=O)O [alanosine]	–	not retained	–	–

From US6861220B2, “Genetic screening methods” (Ramot University Authority for Applied Research & …, priority 1999, dated 2005)
